Laboratory results as given in publication PMC8001558 (Viruses, 2021).
Where two headings read alike, the source gives them in different places.

What was measured:
[1] = tested on: GII.4 VA387 (N/N) P-dimers; type: binding; settings: CSP NMR; buffer B: 75 mM sodium phosphate, 100mM NaCl (pH 7.3); 170 µM protein; 298 K; listed as 3′SL
MNV07 P-domain = type: binding
VA387 P-dimers = tested on: VA387 P-dimers; set-up: method as in ref 31 = [31]; settings: MS based data; cited from earlier work
[2] = molecular target: GII.4 Saga (N/N) P-dimers (Norovirus GII.4, UniProt B5BTR7); test: biochemical; type: binding
[3] = molecular target: GII.4 MI001 (N/N) P-dimers (Norovirus Hu/GII.4/MI001/2011/USA, UniProt S5FWF8); test: biochemical; type: binding; settings: CSP NMR titration; 75 mM sodium phosphate, 100 mM NaCl (pH 7.3); 220 µM protein
GII.4 Saga (P-domain) = GII.4 Saga (P-domain) (Norovirus GII.4, UniProt B5BTR7); test: Re-evaluation of previously reported STD NMR titrations, one-site binding model; set-up: species or system human norovirus (HuNoV)
GII.10 P-dimers = molecular target: GII.10 P-dimers; set-up: method as in ref 28 = [28]; settings: STD NMR titrations stopped at first step of the curve; cited from earlier work
MNV CW1 P-domain = MNV CW1 P-domain (Norovirus, UniProt Q80J94, K296E); test: CSP NMR binding experiment with MNV P-domain; set-up: species or system murine norovirus (MNV); settings: MNV P-domains saturated with GCDCA
[4] = molecular target: P-domain of the VP1 capsid protein of human norovirus GII.4 strain MI001 (human norovirus GII.4 strain MI001)
[5] = molecular target: P-domain of the VP1 capsid protein of human norovirus GII.4 strain VA387 (human norovirus GII.4 strain VA387)
[6] = molecular target: P-domain of the VP1 capsid protein of murine norovirus strain MNV07 (murine norovirus strain MNV07)
[7] = 25 mM Tris-d11 pH* 7.40, 300 mM NaCl, 298 K, refit of titration data of ref [2], read-out: KD in mM (reevaluated)

Q: Which melting point does the source give for C[C@@H]1O[C@@H](O[C@@H]2[C@@H](O[C@H]3O[C@H](CO)[C@H](O)[C@H](O)[C@H]3O)[C@@H](O)[C@@H](CO)O[C@@H]2N=[N+]=[N-])[C@@H](O)[C@H](O)[C@@H]1O (hydrate or solvate) [B-Tri 3, blood group B trisaccharide (azido group at the anomeric position)] here?
A: 204 to 206 °C

Q: For CC(=O)N[C@H]1[C@H]([C@H](O)[C@H](O)CO)O[C@@](O[C@H]2[C@@H](O)[C@@H](CO)O[C@@H](O[C@H]3[C@H](O)[C@@H](O)[C@H](O)O[C@@H]3CO)[C@@H]2O)(C(=O)O)C[C@@H]1O [3′SL 6, 3′-sialyllactose], which “binding (tested negative/positive)” value [1] is on record?
A: no binding

Q: What about the “binding (tested negative/positive)” value (MNV07 P-domain; STD, buffer B (20 mM sodium acetate, 100 mM NaCl, pH 5.3), with GCDCA, no EDTA, no Ca2+, listed as 3′SL) of the same compound?
A: no saturation transfer

Q: What about the “binding to VA387 P-dimers” value (VA387 P-dimers) of the same compound?
A: neither 3′-sialyllactose nor 6′-sialyllactose bind

Q: For CC(=O)N[C@H]1[C@H]([C@H](O)[C@H](O)CO)O[C@@](OC[C@H]2O[C@@H](O[C@H]3[C@H](O)[C@@H](O)[C@H](O)O[C@@H]3CO)[C@H](O)[C@@H](O)[C@H]2O)(C(=O)O)C[C@@H]1O [6′-sialyllactose, reference compound], which “binding to VA387 P-dimers” value (VA387 P-dimers) is on record?
A: neither 3′-sialyllactose nor 6′-sialyllactose bind

Q: Which Kd [2] does the source give for CC(=O)N[C@H]1[C@@H](O[C@H]2[C@@H](O)[C@@H](CO)O[C@@H](O)[C@@H]2O[C@@H]2O[C@@H](C)[C@@H](O)[C@@H](O)[C@@H]2O)O[C@H](CO)[C@H](O)[C@@H]1O [A-Tri 2, blood group A trisaccharide] here?
A: 4.3 ± 0.4 mM

Q: With C[C@@H]1O[C@@H](O[C@@H]2[C@@H](O[C@H]3O[C@H](CO)[C@H](O)[C@H](O)[C@H]3O)[C@@H](O)[C@@H](CO)O[C@@H]2N=[N+]=[N-])[C@@H](O)[C@H](O)[C@@H]1O [B-Tri 3, blood group B trisaccharide (azido group at the anomeric position)] as the compound, how does the Kd [3] read?
A: 4.3 ± 0.4 mM

Q: With O=C(O)CC(O)(CC(=O)O)C(=O)O [Citrate, reference compound] as the compound, how does the Kd (GII.4 Saga (P-domain); KD in mM (reevaluated)) read?
A: 22.9 ± 2.7 mM

Q: And the dissociation constants (GII.10 P-dimers)?
A: sub millimolar

Q: Which Kd (GII.4 Saga (P-domain); 25 mM BisTris-d19 pH* 6.5, 300 mM NaCl, 298 K, refit of titration data of ref [2], read-out: KD in mM (reevaluated)) does the source give for CO[C@@H]1O[C@@H](C)[C@@H](O)[C@@H](O)[C@@H]1O [Fuc 8, methyl α-L-fucopyranoside] here?
A: 15.1 ± 1.6 mM

Q: What about the Kd (GII.4 Saga (P-domain); 25 mM PBS pH* 5.50, 300 mM NaCl, 298 K, refit of titration data of ref [2], read-out: KD in mM (reevaluated)) of the same compound?
A: 21.9 ± 2.6 mM

Q: And the Kd (GII.4 Saga (P-domain); 25 mM PBS pH* 6.50, 300 mM NaCl, 298 K, refit of titration data of ref [2], read-out: KD in mM (reevaluated))?
A: 18.4 ± 2.6 mM

Q: What about the Kd (GII.4 Saga (P-domain); 25 mM PBS pH* 7.40, 300 mM NaCl, 298 K, refit of titration data of ref [2] (Mallagaray et al., Angew Chem Int Ed 2015), read-out: KD in mM (reevaluated)) of the same compound?
A: 15.6 ± 1.9 mM

Q: And the Kd (GII.4 Saga (P-domain); 25 mM sodium acetate-d3, pH* 4.50, 300 mM NaCl, 298 K, refit of titration data of ref [2], read-out: KD in mM (reevaluated))?
A: 24.5 ± 4.1 mM

Q: With CC(CCC(=O)NCC(=O)O)C1CCC2C3C(O)CC4CC(O)CCC4(C)C3CCC12C (centres unmarked) [GCDCA, glycochenodeoxycholic acid, reference compound] as the compound, how does the “STD effects (saturation transfer to ligand)” value (MNV07 P-domain; 80 µM protein, 20 mM sodium acetate buffer (pH 5.3), 250 µM GCDCA, 2 mM 3′SL, 298 K, 600 MHz) read?
A: show STD effects

Q: Which Kd (GII.4 Saga (P-domain); [7]) does the source give for CO[C@@H]1O[C@H](CO)[C@H](O)[C@H](O)[C@H]1O[C@@H]1O[C@@H](C)[C@@H](O)[C@@H](O)[C@@H]1O [H-Dis 12, blood group H-disaccharide] here?
A: 26.5 ± 2.7 mM

Q: For C[C@H](O)[C@@H](O)[C@@H](O)[C@H](O)C=O [L-fucose], which dissociation constants (GII.10 P-dimers) is on record?
A: sub millimolar

Q: With [Cl-].[Cl-].[Mg+2] [Mg^2+] as the compound, how does the “binding of bivalent metal ions” value (MNV CW1 P-domain) read?
A: detected binding

Q: Which “binding of bivalent metal ions” value (MNV CW1 P-domain) does the source give for [Mn+2] [Mn^2+] here?
A: detected binding

Q: Which Kd (GII.4 Saga (P-domain); [7]) does the source give for CO[C@@H]1O[C@H](CO)[C@H](O)[C@H](O[C@H]2O[C@H](CO)[C@H](O)[C@H](O)[C@H]2O)[C@H]1O[C@@H]1O[C@@H](C)[C@@H](O)[C@@H](O)[C@@H]1O [b -Methyl glycoside of B-trisaccharide, reference compound] here?
A: 5.2 ± 0.5 mM

Q: Which stoichiometry N [4] does the source give for “P-domain of the VP1 capsid protein of human norovirus GII.4 strain MI001 (domain or fragment)” here?
A: 2

Q: For “P-domain of the VP1 capsid protein of human norovirus GII.4 strain VA387 (domain or fragment)”, which stoichiometry N [5] is on record?
A: 2

Q: Which stoichiometry N [6] does the source give for “P-domain of the VP1 capsid protein of murine norovirus strain MNV07 (domain or fragment)” here?
A: 2
